In patent US20050112696A1, “Compositions, methods and assays related to secretase cleavage specificity” (The University of Texas Southwestern Medical Center, priority 2003, published 2005):
Entries after “also recorded” stand apart in the source; their conditions may differ.

How the values were obtained:
[1] = system: Ga14-Tip60 dependent transcription mediated by APP (γ-secretase cleavage); assay: Ga14-Tip60 transactivation assay, cells co-transfected with APP and Fe65; format: cell-based; conditions: HEK293 cells; DAPT 2 and 10 μM; inhibition was incomplete; FIG. 2C
Description: (§1) HEK293, HeLa and COS7 cells were transfected at 50 to 80% confluency in 6-well plates using Fugene6 reagent (Roche). For Ga14-Tip60 transactivation assays, HEK293 cells were co-transfected with five plasmids: (1) pG5E1B-luc=0.15 μg; (2) pCMV-LacZ=0.10 μg; (3) pM-Tip60=0.5 μg; (4) pCMV-FE65=0.5 μg; and (5) 0.05-1.0 μg pCMV-APP, 0.025-0.5 μg pCMV-Sport6-APLP1, or 0.05-1.0 μg pcDNA3.1-APLP2 as indicated. For the Fe65 titration experiments, HEK293 cells were cotransfected with five plasmids: (1) pG5E1B-luc=0.15 μg; (2) pCMV-LacZ=0.10 μg; (3) pM-Tip60=0.5 μg; (4) 0.5 μg of APP, 0.25 μg of APLP1, or 0.5 μg of APLP2; and (5) 0-2.0 μg pCMV-Fe65. Cells were harvested 2 days after transfection in 0.25 ml/well of reporter lysis buffer (Promega), and their Luciferase and β-galctosidase activities were determined with the Promega luciferase assay kit using a chemiluminescence reader from Berthold, and with the O-nitrophenyl-D-galacto-pyranoside assay for β-galactosidase, respectively. […]
(§2) For all three proteins (APP, APLP1, and APLP2), a bell-shaped dose-response curve of transactivation that depended on APP or an APLP was observed (FIG. 2A). […] Again, a dose-dependent, highly specific transactivation of Ga14-dependent transcription was detected. […]

[2] = system: Ga14-Tip60 dependent transcription mediated by APLP1 (γ-secretase cleavage); assay: Ga14-Tip60 transactivation assay, cells co-transfected with APLP1 and Fe65; format: cell-based; conditions: HEK293 cells; DAPT 2 and 10 μM; inhibition was incomplete; FIG. 2C
Description: as §1, §2

[3] = system: Ga14-Tip60 dependent transcription mediated by APLP2 (γ-secretase cleavage); assay: Ga14-Tip60 transactivation assay, cells co-transfected with APLP2 and Fe65; format: cell-based; conditions: HEK293 cells; DAPT 2 and 10 μM; inhibition was incomplete; FIG. 2C
Description: as §1, §2

γ-secretase = assay: Immunoblotting of C-terminal fragments (CTFs) in transfected HEK293 cells; format: cell-based
Description: HEK293, HeLa and COS7 cells were transfected at 50 to 80% confluency in 6-well plates using Fugene6 reagent (Roche). For Ga14-Tip60 transactivation assays, HEK293 cells were co-transfected with five plasmids: (1) pG5E1B-luc=0.15 μg; (2) pCMV-LacZ=0.10 μg; (3) pM-Tip60=0.5 μg; (4) pCMV-FE65=0.5 μg; and (5) 0.05-1.0 μg pCMV-APP, 0.025-0.5 μg pCMV-Sport6-APLP1, or 0.05-1.0 μg pcDNA3.1-APLP2 as indicated. For the Fe65 titration experiments, HEK293 cells were cotransfected with five plasmids: (1) pG5E1B-luc=0.15 μg; (2) pCMV-LacZ=0.10 μg; (3) pM-Tip60=0.5 μg; (4) 0.5 μg of APP, 0.25 μg of APLP1, or 0.5 μg of APLP2; and (5) 0-2.0 μg pCMV-Fe65. Cells were harvested 2 days after transfection in 0.25 ml/well of reporter lysis buffer (Promega), and their Luciferase and β-galctosidase activities were determined with the Promega luciferase assay kit using a chemiluminescence reader from Berthold, and with the O-nitrophenyl-D-galacto-pyranoside assay for β-galactosidase, respectively. The luciferase activity was standardized by the β-galactosidase activity to control for transfection efficiency and further normalized with the transactivation level with cells expressing no APPs or Fe65. Values shown are averages of transactivation assays performed in triplates. For immunoblotting analyses, HEK293 were transfected with 1 μg expression plasmids encoding APP, APLP1, APLP2, SynCam, or neurexin 1β, with or without 0.25 μg of BACE 1 expression vector. For APLP1 cleavage experiments, 1 μg of APLP1 or APP was cotransfected with BACE (0.25 μg and 0.5 μg) or ADAM 9 (0.5 μg and 1.0 μg) in HEK293, HeLa and COS cells. The cell extracts or media were harvested 24 hours after the transfection. Where indicated, γ-secretase inhibitor IX (DAPT; Calbiochem) was added (2 μM final concentration) 6 hrs before harvesting the cells.
SDS-PAGE and Immunoblotting experiments were performed using standard procedures well know to one of ordinary skill in the are with either regular SDS gels or tricine gels. Lanes were loaded with ˜20 μg of protein from whole cell extracts harvested in sample buffer, and analysed by immunoblotting after SDS-PAGE using antibody dilutions of 1:1,000-2,000 for primary and 1:10,000 HRP conjugated goat-anti-rabbit secondary antibodies (ICN). For immunoblotting analysis of secreted proteins, supernatants from transfected cells (30 μl with approximately 5 μg protein) were loaded per lane.
In the next set of experiments these antibodies were employed to probe for APP, APLP1, and APLP2 cleavage in cells that either expressed these proteins alone or in combination with BACE 1 (FIG. 4). As negative controls, two other neuronal cell-surface proteins, […] (Nrx1β) and SynCAM (36,37,39) were examined. For each of the five proteins studied, six conditions were investigated: HEK293 control cells (lane 1), transfected cells only expressing BACE 1 (lane 2), or cells transfected either with APP, APLP1, APLP2, neurexin 1β (Nrx1β), or SynCAM alone (lanes 3 and 5) or together with BACE 1 (lanes 4 and 6) were incubated in the absence (lanes 1-4) or presence of the γ-secretase inhibitor DAPT ([…]; lanes 5-6). Transfected proteins (indicated on the right) were examined by immunoblotting (20 μg cell protein/lane) using regular SDS-PAGE (top panel for each protein) to monitor the full-length proteins (FL), or by tricine gel electrophoresis to detect their CTFs (bottom panel for each protein). […]

[4] = system: central APP domain (CAD) of APP, APLP1 and APLP2; assay: F-spondin binding to the central APP domain (CAD); conditions: extracellular ligand; reelin domain or reelin and spondin domains sufficient
[5] = target: β-secretase cleavage sites of APP (Homo sapiens, UniProt P05067); assay: Effect of F-spondin binding on β-secretase cleavage of APP
Chain of β-secretase cleavage sites of APP (P05067 18-770): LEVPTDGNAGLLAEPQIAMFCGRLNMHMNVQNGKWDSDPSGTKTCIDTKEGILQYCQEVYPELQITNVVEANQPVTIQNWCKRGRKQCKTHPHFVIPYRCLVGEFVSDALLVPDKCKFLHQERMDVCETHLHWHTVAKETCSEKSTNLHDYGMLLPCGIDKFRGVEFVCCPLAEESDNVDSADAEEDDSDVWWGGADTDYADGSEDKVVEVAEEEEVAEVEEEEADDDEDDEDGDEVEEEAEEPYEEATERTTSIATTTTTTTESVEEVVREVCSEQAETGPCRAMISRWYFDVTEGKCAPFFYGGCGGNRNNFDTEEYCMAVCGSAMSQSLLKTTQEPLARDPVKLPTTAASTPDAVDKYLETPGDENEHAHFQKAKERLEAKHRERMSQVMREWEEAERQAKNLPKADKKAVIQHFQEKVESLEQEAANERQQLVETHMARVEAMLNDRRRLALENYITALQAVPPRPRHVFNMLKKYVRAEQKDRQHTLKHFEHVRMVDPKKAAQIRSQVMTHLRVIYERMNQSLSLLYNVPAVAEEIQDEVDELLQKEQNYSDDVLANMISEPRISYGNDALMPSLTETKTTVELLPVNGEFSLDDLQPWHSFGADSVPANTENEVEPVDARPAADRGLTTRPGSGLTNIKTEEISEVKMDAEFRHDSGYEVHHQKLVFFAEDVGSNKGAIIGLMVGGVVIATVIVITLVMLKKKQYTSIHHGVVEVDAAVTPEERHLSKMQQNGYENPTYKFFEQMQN

| Molecule | inhibition of transactivation mediated by APP [1] | inhibition of transactivation mediated by APLP1 [2] | inhibition of transactivation mediated by APLP2 [3] | CTFs of APLP1 upon DAPT treatment (γ-secretase; HEK293 cells transfected with APLP1, with or without BACE 1, DAPT (2 mM [sic]), FIG. 4) | CTFs of APLP2 upon DAPT treatment (γ-secretase; HEK293 cells transfected with APLP2, with or without BACE 1, DAPT (2 mM [sic]), FIG. 4) | CTFs of APP upon DAPT treatment (γ-secretase; HEK293 cells transfected with APP, with or without BACE 1, DAPT added 6 hrs before harvesting, tricine gel immunoblot) | CTFs of neurexin 1β/APP hybrid upon DAPT treatment (γ-secretase; HEK293 cells transfected with Nrx1β/APP hybrid, with or without BACE 1, FIG. 6B) | CTFs of neurexin 1β upon DAPT treatment (γ-secretase; HEK293 cells transfected with neurexin 1β, DAPT (2 mM [sic]), said to be most likely an artifact, FIG. 4) | binding to the central APP domain (CAD) of APP, APLP1 and APLP2 [4] | effect of binding on cleavage at the β-secretase cleavage sites [5] |
| --- | --- | --- | --- | --- | --- | --- | --- | --- | --- | --- |
| C[C@H](NC(=O)Cc1cc(F)cc(F)c1)C(=O)N[C@H](C(=O)OC(C)(C)C)c1ccccc1 [DAPT] | Significant inhibition | Significant inhibition | Significant inhibition | very abundant | very abundant | very abundant; also recorded: massive accumulation of CTFs | massive accumulation of CTFs | CTFs were also observed |  |  |
| F-spondin: secreted multi-domain protein that promotes neural cell adhesion and neurite extension; extracellular ligand of APP (protein, UniProt Q9HCB6 29-807, looked up) Spondin-1: FSDETLDKVPKSEGYCSRILRAQGTRREGYTEFSLRVEGDPDFYKPGTSYRVTLSAAPPSYFRGFTLIALRENREGDKEEDHAGTFQIIDEEETQFMSNCPVAVTESTPRRRTRIQVFWIAPPAGTGCVILKASIVQKRIIYFQDEGSLTKKLCEQDSTFDGVTDKPILDCCACGTAKYRLTFYGNWSEKTHPKDYPRRANHWSAIIGGSHSKNYVLWEYGGYASEGVKQVAELGSPVKMEEEIRQQSDEVLTVIKAKAQWPAWQPLNVRAAPSAEFSVDRTRHLMSFLTMMGPSPDWNVGLSAEDLCTKECGWVQKVVQDLIPWDAGTDSGVTYESPNKPTIPQEKIRPLTSLDHPQSPFYDPEGGSITQVARVVIERIARKGEQCNIVPDNVDDIVADLAPEEKDEDDTPETCIYSNWSPWSACSSSTCDKGKRMRQRMLKAQLDLSVPCPDTQDFQPCMGPGCSDEDGSTCTMSEWITWSPCSISCGMGMRSRERYVKQFPEDGSVCTLPTEETEKCTVNEECSPSSCLMTEWGEWDECSATCGMGMKKRHRMIKMNPADGSMCKAETSQAEKCMMPECHTIPCLLSPWSEWSDCSVTCGKGMRTRQRMLKSLAELGDCNEDLEQVEKCMLPECPIDCELTEWSQWSECNKSCGKGHVIRTRMIQMEPQFGGAPCPETVQRKKCRIRKCLRNPSIQKLRWREARESRRSEQLKEESEGEQFPGCRMRPWTAWSECTKLCGGGIQERYMTVKKRFKSSQFTSCKDKKEIRACNVHPC |  |  |  |  |  |  |  |  | binds | inhibits the cleavage |
